Experimental findings from US10168323B2, “Compositions and methods for capture of cellular targets of bioactive agents” (Promega Corporation, priority 2013, dated 2019) are described below.

Assay [1] deals with T1, NANOLUC-p38 alpha fusion protein (Homo sapiens, UniProt Q16539).
T1 construct: NANOLUC luciferase (reporter fusion partner); expressed in transfected cells; host or cells: HEK293
Put plainly: Pull-down and release of NANOLUC-p38 alpha fusion from HEK293 cell lysates. The class given is binding. Here is the method:
In this example, BIRB-chloroalkane conjugate (PBI-4834) and BIRB chloroalkane conjugate containing a cleavable linker (PBI-5131) were utilized to pull-down a NANOLUC-p38 alpha fusion protein from HEK293 cell lysates. Lysate of cells expressing NANOLUC-p38 fusion were incubated with 1 μM PBI-4834 or PBI-5131 (final concentration) while control lysates were not treated with the conjugated drugs. Following equilibration binding for 2 h, the lysates were transferred to wells of a 96-well plate containing 0.5 μl settled paramagnetic HALOTAG protein beads and incubated with shaking for 45 min. Following binding the unbound fraction was removed, the HALOTAG protein paramagnetic beads were washed 3×, and the captured NANLUC-p38 alpha fusion specifically released from the beads by one of two methods: • 1. 150 μM unconjugated BIRB796 was used to compete for binding with the conjugated BIRB796 on the NANOLUC-p38 alpha fusion for 60 min. • 2. The NANOLUC-p38 alpha fusion was rapidly released through 10 min chemical cleavage of the chloroalkane linker with 10 mM of sodium hydrosulfite (PBI-5131 is a chloroalkane cleavable linker). The released NANOLUC-p38 alpha (+PBI4834/+PBI5131) and control (-drug) were detected with NANOGLO luciferase detection reagent.

The target in a further assay is T2, p38 alpha (Homo sapiens, UniProt Q16539).
T2 construct: isolate, e.g., pull-down, endogenous targets from cells; endogenous in cells; host or cells: HEK293
T2 sequence (Q16539 whole entry): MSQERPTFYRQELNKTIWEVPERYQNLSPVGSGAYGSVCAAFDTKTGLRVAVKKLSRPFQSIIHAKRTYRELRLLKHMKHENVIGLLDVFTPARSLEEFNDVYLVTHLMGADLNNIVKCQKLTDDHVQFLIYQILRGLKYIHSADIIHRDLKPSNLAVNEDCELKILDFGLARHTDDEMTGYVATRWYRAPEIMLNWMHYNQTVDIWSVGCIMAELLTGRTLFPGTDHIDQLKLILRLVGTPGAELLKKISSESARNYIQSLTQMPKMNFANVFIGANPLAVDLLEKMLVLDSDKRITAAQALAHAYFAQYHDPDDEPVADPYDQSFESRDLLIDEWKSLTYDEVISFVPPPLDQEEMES
Put plainly: Endogenous target pull-down from HEK293 cells (western blot, mass spec). The class given is cell-based. As to conditions: 10 uM conjugate, western blot and mass spec. Here is the method:
HEK293 cells were plated in a 6 well plate (2.5×10^5 cells). 48 hours post plating, a final concentration of 10 uM of BIRB-chloroalkane (PBI-4834) was added to 2 wells while control cells were not treated with the drug conjugate. Following equilibration binding for 2 h, the media was removed, and the cells were quickly washed with PBS and lysed in detergent-based lysis buffer for 10 min. Cell lysates were then transferred to an EPPENDORF tube containing 12.5 ul of settled paramagnetic HALOTAG protein beads and incubated with shaking for 15 min. Following binding, the unbound fraction was removed, the HALOTAG protein paramagnetic beads washed 3×, and the captured targets specifically released from the beads by competition with 150 μM unconjugated BIRB796 for 60 min. The released targets were subjected to mass spec analysis as well as western blot analysis using an anti-p38 alpha antibody (Abcam).
For orientation: A western blot detects proteins with antibodies after separation by electrophoresis.

Assay [2] addresses T1, NANOLUC-p38 alpha fusion protein. Put plainly: Pull-down of NANOLUC-p38 alpha fusion from living HEK293 cells onto HALOTAG protein beads. The class given is cell-based. The procedure:
In this example, a BIRB-chloroalkane conjugate (PBI-4834, see below) was utilized to pull down a NANOLUC-p38 alpha fusion protein from living cells.
HEK293 cells in wells of a 96-well plate were transfected using PEI with plasmid DNA encoding NANOLUC-p38 fusion. Twenty-four hours post-transfection, cells were incubated with a final concentration of 10 μM PBI-4834 while control cells were not treated with the conjugated drug. Following equilibration binding of 2 hours, the media was removed, cells were quickly washed with PBS and lysed in a detergent-based lysis buffer for 10 minutes. The cell lysates were then transferred to wells of a 96-well plate which contained 0.5 μl settled paramagnetic HALOTAG protein beads (Promega Corp.) and incubated with shaking for 15-45 minutes. Following binding, the unbound fraction was removed and the HALOTAG protein paramagnetic beads were washed. 150 uM unconjugated BIRB796 was then added and the captured NANOLUC-p38 alpha fusion was specifically released from the beads by competition with the unconjugated BIRB796 for 60 minutes. The released NANOLUC-p38 alpha fusion protein (+PBI-4834) and control (−PBI4834) was detected using NANOGLO luciferase reagent (Promega Corp.).

The target in assay [3] is T3, NANOLUC-p38 fusion protein (Homo sapiens, UniProt Q16539).
T3 construct: NANOLUC luciferase (reporter fusion partner); expressed in transfected cells
T3 sequence (Q16539 whole entry, the tested form may be a part): as the sequence (Q16539 whole entry) above
In words: Pull-down of NANOLUC-p38 fusion from cell lysates with HALOTAG protein dimer on HALOLINK plates. The class given is binding. As to conditions: p38-Nluc expressing cells treated with drug, listed as BIRB-chloroalkane. Here is the method:
Different amounts of a HALOTAG protein dimer (dimer of SEQ ID NO: 1) were added to cell lysates expressing a NANOLUC-p38 fusion protein (e.g., reporter/cellular-target fusion) which have or have not been treated with BIRB-chloroalkane (e.g., bioactive-agent/capture-ligand conjugate) as shown in Table 1. After 15 minute incubation, the samples were placed into wells of white, 96-well polystyrene plates activated with HALOTAG ligand (HALOLINK plates; Promega Corp.) and further incubated for 45 minutes. The wells were then washed PBS+0.05% Tween-20 (PBST). Then, 50 ul PBS followed by 50 ul of NANOGLO luciferase detection reagent was added to the wells, and luminescence measured.
Table 2 indicates differences in luminescence in samples with and without HALOTAG dimer (e.g., dimer of SEQ ID NO: 1) that indicate specific pull-down of the NANOLUC-p38 fusion protein.

The next assay has as its target T4, DHFR (Homo sapiens, UniProt P00374).
T4 construct: isolate, e.g., pull-down, endogenous targets from cells; endogenous in cells; host or cells: HEK293
T4 sequence (P00374 1-187): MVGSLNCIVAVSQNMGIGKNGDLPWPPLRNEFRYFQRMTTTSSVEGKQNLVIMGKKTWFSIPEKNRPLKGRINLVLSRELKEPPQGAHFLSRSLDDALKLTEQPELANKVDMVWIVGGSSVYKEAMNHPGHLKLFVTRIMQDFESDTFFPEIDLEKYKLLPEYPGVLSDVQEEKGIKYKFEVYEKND
In words: Endogenous target pull-down from HEK293 cells (western blot, mass spec). The class given is cell-based. The settings on record: 10 uM conjugate, western blot and mass spec. The procedure: HEK293 cells were plated into wells of a 6-well plate (2.5×10^5 cells/well). 48 hours post plating, a final concentration of 10 uM of Methotrexate chloroalkane (PBI-5015) was added to 2 wells while control cells were not treated with the drug conjugate. Following equilibration binding for 2 h, the media was removed, and the cells quickly washed with PBS and lysed in detergent-based lysis buffer for 10 min. Cell lysates were then transferred to an Eppendorf® tube containing 12.5 ul of settled paramagnetic HALOTAG protein beads and incubated with shaking for 15 min. Following binding, the unbound fraction was removed, the HALOTAG paramagnetic beads washed 3×, and the captured targets specifically released from the beads by competition with 150 μM unconjugated methotrexate for 60 mins. The released targets were subjected to mass spec analysis as well as western blot analysis using an anti-DHFR antibody (Sigma). […] Furthermore, although the expression level of DHFR in the cells is very low (not detected in lysate by western blot analysis), it was still efficiently captured as indicated by the western blot analysis (FIG. 8A) and mass spec analysis (FIG. 8B).

A further assay deals with T5, NANOLUC-DHFR fusion (Homo sapiens, UniProt P00374).
T5 construct: NANOLUC luciferase (reporter fusion partner); expressed in transfected cells; host or cells: HEK293
T5 sequence (P00374 1-187): T4 sequence (P00374 1-187)
Put plainly: Binding affinity to DHFR in live cells using BRET. The settings on record: live HEK293 cells, in the presence of 1 μM PBI-4890. The class given is cell-based. The procedure: Binding affinity to DHFR in live cells was tested using BRET. HEK293 cells in wells of a 96-well plate were transfected using PEI with plasmid DNA encoding a NANOLUC-DHFR fusion. The DNA was diluted 1:50 with a promoterless carrier DNA plasmid (PSI) to a final concentration of 80 ng total DNA per well. Twenty-four hours post-transfection, cells were serum starved for additional 24 hours and then treated with serially diluted PBI-4848 or PBI-5015 in the presence of 1 μM PBI-4890 (TOM-methotrexate derivative). After two hours of equilibration binding, furimazine (a coelenterazine derivative; Promega Corp.) was added to a final concentration of 20 μM, and BRET measured on a Varioskan luminometer.
On the technique in general: BRET reads energy transfer from a luciferase to a nearby fluorophore.

Assay [4] addresses T6, NANOLUC:DHFR (Nluc:DHFR) fusion (Homo sapiens, UniProt P00374).
T6 construct: NANOLUC luciferase (reporter fusion partner); expressed in transfected cells; host or cells: HEK293
T6 sequence (P00374 1-187): T4 sequence (P00374 1-187)
In words: Pull-down of NANOLUC:DHFR from live HEK293 cells onto HALOTAG protein beads. The class given is cell-based. The settings on record: 10 μM conjugate, release with 150 μM methotrexate. Here is the method:
The DNA was diluted 1:50 with a promoterless carrier DNA plasmid (PSI) to a final concentration of 80 ng total DNA per well. Twenty-four hours post-transfection, cells were serum starved for additional 24 h and then incubated with 10 μM PBI-4848 or PBI-5015 while control cells were not treated with the conjugated drug. Following equilibration binding of 2 h, the media was removed, and the cells quickly washed with PBS and lysed in detergent-based lysis buffer for 10 min. Cell lysates were then transferred to wells of a 96-well plate containing 0.5 μl settled paramagnetic HALOTAG protein beads and incubated with shaking for 45 min. Following binding, the unbound fraction was removed, the HALOTAG protein paramagnetic beads washed, 150 μM unconjugated methotrexate added, and the captured NANOLUC:DHFR specifically released from the beads by competition with the unconjugated methotrexate for 60 min. The released NANOLUC:DHFR (+PBI5015 or +PBI 4848) and control samples were detected by NANOGLO luciferase detection reagent.

“And” between values parts separate entries of the source, which are not always exact repeats. Equal entries are not always repeated.

T1 sequence (Q16539 whole entry, the tested form may be a part): as the sequence (Q16539 whole entry) above

Regarding `CC(C)(C)c1cc(NC(=O)Nc2ccccc2)n(-c2cccc(CNC(=O)CCCCCOc3ccc(/N=N/c4ccc(C(=O)NCCOCCOCCCCCCCl)cc4)c(O)c3)c2)n1` [PBI-5131], the “specific capture after rapid release using chemical cleavage” value in assay [1] (10 min cleavage with 10 mM sodium hydrosulfite) was “significant increase in specific capture”.
With `CC(C)(C)c1cc(NC(=O)Nc2ccccc2)n(-c2cccc(CNC(=O)CNC(=O)OCCOCCOCCOC(=O)NCCOCCOCCCCCCCl)c2)n1` [PBI-4834], the “pull-down of endogenous p38 alpha” value on p38 alpha is recorded as “specifically isolated”. Besides, in assay [2] (10 μM conjugate, HEK293 cells, release with 150 uM BIRB796), the “expressed fusion specifically captured to the beads” value was 1%. In addition, the “signal over background of capture on HALOTAG protein beads” value in assay [2] (within 15 minutes of capture) is recorded as “high signal over background”. In addition, the “pull-down efficiency of NANOLUC-p38 alpha” value in assay [1] (1 μM conjugate, HEK293 cell lysate) was “significantly higher”. For the same compound, the luminescence was 236900 and 397958 and 431167 in assay [3] (2 ug/well HALOTAG dimer); 401205 and 538956 and 596504 in assay [3] (6 ug/well HALOTAG dimer); 395510 and 526903 and 610628 in assay [3] (8 ug/well HALOTAG dimer); 278085 and 275690 and 443682 in assay [3] (No HALOTAG dimer).
As to `CN(Cc1cnc2nc(N)nc(N)c2n1)c1ccc(C(=O)NC(CCC(=O)NCCCCCNC(=O)OCCOCCOCCOC(=O)NCCOCCOCCCCCCCl)C(=O)O)cc1` (stereo not shown) [PBI-5015], the “pull-down of endogenous DHFR” value on DHFR is reported as “specifically isolated”. Besides, the “affinity to DHFR (dose-response BRET curves)” value at NANOLUC-DHFR fusion is given as “lower affinity”. For the same compound, the “pull-down of Nluc:DHFR fusion” value in assay [4] is “efficiently pulled down”.
For the compound `CN(Cc1cnc2nc(N)nc(N)c2n1)c1ccc(C(=O)NC(CCC(=O)NCCOCCOCCCCCCCl)C(=O)O)cc1` (stereo not shown) [PBI-4848], the “affinity to DHFR (dose-response BRET curves)” value on NANOLUC-DHFR fusion is “higher affinity”.
